The record followed here is ChEMBL document CHEMBL1154395, “Modulations of the amide function of the preferential dopamine D3 agonist (R,R)-S32504: improvements of affinity and selectivity for D3 versus D2 receptors” (Bioorg Med Chem Lett, 2009).

Assay [1] concerns the target T1, D(3) dopamine receptor (Homo sapiens, UniProt P35462). Briefly: Displacement of [3H]spiperone form human cloned dopamine D3 receptor expressed in CHO cells. In kind it is cell-based.
The target in assay [2] is D(2) dopamine receptor (Homo sapiens, UniProt P14416). Briefly: Displacement of [3H]spiperone form human cloned dopamine D2L receptor expressed in CHO cells. It counts as cell-based. (In general: Displacement assays read how much labelled ligand stays bound in the presence of the test substance.)
Assay [3] is filed under the species Homo sapiens. Briefly: Selectivity ratio of Ki for human dopamine D2 receptor to Ki for human dopamine D3 receptor.
The target of assay [4] is T1, D(3) dopamine receptor. The assay can be described thus: Activation of human dopamine D3 receptor expressed in CHO cells assessed as [35S]GTPgammaS binding by scintillation proximity assay. It counts as functional, cell-based. In general terms: GTPγS resists hydrolysis and so accumulates on activated G proteins.

Structures are written as SMILES. Bounds are passed on as bounds.

T1 sequence (P35462 whole entry): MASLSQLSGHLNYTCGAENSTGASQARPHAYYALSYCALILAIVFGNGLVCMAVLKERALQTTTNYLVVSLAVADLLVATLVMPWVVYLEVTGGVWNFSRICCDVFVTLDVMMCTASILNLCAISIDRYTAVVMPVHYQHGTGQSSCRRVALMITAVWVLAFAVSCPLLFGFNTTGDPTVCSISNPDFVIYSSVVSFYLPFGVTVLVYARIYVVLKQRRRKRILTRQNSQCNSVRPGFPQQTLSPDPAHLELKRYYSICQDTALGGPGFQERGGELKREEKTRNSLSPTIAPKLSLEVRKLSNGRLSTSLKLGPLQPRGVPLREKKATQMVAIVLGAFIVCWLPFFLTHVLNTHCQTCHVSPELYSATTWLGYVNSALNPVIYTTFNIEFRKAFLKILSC
Chain of D(2) dopamine receptor (P14416 whole entry): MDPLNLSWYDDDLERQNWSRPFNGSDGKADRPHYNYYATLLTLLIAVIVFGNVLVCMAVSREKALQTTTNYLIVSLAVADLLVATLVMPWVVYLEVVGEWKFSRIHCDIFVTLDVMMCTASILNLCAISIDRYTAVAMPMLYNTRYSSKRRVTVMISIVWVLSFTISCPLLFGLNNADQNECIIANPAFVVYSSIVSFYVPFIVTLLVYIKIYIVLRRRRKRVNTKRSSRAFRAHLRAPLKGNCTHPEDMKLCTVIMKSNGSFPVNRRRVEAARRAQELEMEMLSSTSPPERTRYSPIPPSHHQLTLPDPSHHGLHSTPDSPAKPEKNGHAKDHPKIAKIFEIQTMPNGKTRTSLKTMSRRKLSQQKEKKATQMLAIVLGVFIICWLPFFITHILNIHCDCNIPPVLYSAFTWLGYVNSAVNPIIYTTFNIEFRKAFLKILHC

As for `CCCN1CCO[C@@H]2c3cc(C(=O)OCC)ccc3CC[C@H]21`, in assay [1], the Ki (usually the dissociation constant of the complex between target and ligand, obtained from inhibition or displacement) is 2.63 µM.
Take `CCCN1CCO[C@@H]2c3cc(C(=O)O)ccc3CC[C@H]21`: the inhibition constant (Ki) was 3.31 µM in assay [1] and above 10 µM in assay [2].
For the molecule `CCCN1CCO[C@@H]2c3cc(C#N)ccc3CC[C@H]21`, the Ki is 0.0398 µM in assay [1] and 0.794 µM in assay [2]. In addition, the Ratio Ki in assay [3] turned out to be 20.
Regarding `CCCN1CCO[C@@H]2c3cc(C(=O)N(C)C)ccc3CC[C@H]21`, the figures for the inhibitory constant (Ki) in assay [1] and in assay [2] were above 10 µM and 1.86 µM, respectively.
In the same order, the values of `CCCN1CCO[C@@H]2c3cc(-c4nnn[nH]4)ccc3CC[C@H]21` are above 10 µM and above 10 µM.
With `CCCCNC(=O)c1ccc2c(c1)[C@H]1OCCN(CCC)[C@@H]1CC2`, the Ki in assay [1] was above 10 µM; in assay [2], 4.57 µM.
For the molecule `CCCN1CCO[C@@H]2c3cc(C(=O)Nc4ccc(OC)cc4)ccc3CC[C@H]21`, the Ki in assay [1] is 2.75 µM; in assay [2] it was above 10 µM.
On to `CCCN(CCC)CCc1cccc2c1CC(=O)N2` [ROPINIROLE], for which, in assay [2], the Ki was 0.692 µM.
Take `CCCN1CCO[C@@H]2c3cc(C(=O)NC)ccc3CC[C@H]21`: the Ki in assay [1] is above 10 µM; in assay [2], 7.94 µM.
For `CCCN1CCO[C@@H]2c3cc4c(cc3CC[C@H]21)CCOC4=O`, the Ki is 0.12 µM in assay [1] and 1.48 µM in assay [2]. Further, the Ratio Ki in assay [3] amounted to 12.5.
Molecule `CCCN1CCO[C@@H]2c3cc4c(=O)[nH]ccc4cc3CC[C@H]21` had a Ki in assay [2] of 1.2 µM.
On the same count and under the same terms, next, `CCCN1CCO[C@@H]2c3cc4c(cc3CC[C@H]21)COC4=O`: 2.04 µM.
With `CCCN1CCO[C@@H]2c3cc(C(=O)NCc4ccc(OC)cc4)ccc3CC[C@H]21`, the Ki in assay [1] is above 10 µM; in assay [2], 3.39 µM.
`CCCN1CCO[C@@H]2c3cc4c(cc3CC[C@H]21)CCNC4=O`: the affinity in assay [2], expressed as Ki, was 0.776 µM.
`CCCN1CCO[C@H]2c3cc(C(N)=O)ccc3CC[C@@H]21`: the Ki was 2.45 µM in assay [1] and above 10 µM in assay [2].
On to `CCCN1CCO[C@@H]2c3cc(C(N)=O)ccc3CC[C@H]21`, for which the Ki in assay [1] was 0.0148 µM; in assay [2], 1.2 µM. The Ratio Ki in assay [3] is 80. In addition, the half-maximal effective concentration (EC50) (as a rule, the concentration that produces a half-maximal response) in assay [4] is 0.00229 µM.
As for `CCCN1CCO[C@@H]2c3cc(C(C)=O)ccc3CC[C@H]21`, the results for the inhibitory constant (Ki) in assay [1] and in assay [2] were 0.0955 µM and 3.09 µM, respectively. Also, the Ratio Ki in assay [3] was found to be 32.
As for `CCCN1CCO[C@@H]2c3cc4c(cc3CC[C@H]21)CN(C)C4=O`, the Ki in assay [1] was 2.19 µM; in assay [2] it was above 10 µM.
`CCCN1CCOC2c3cc(C(N)=O)ccc3CCC21` (racemic): the inhibition constant Ki is 0.0195 µM in assay [1] and 0.759 µM in assay [2]. Moreover, in assay [3], the Ratio Ki is 40.
With `CCCN1CCO[C@@H]2c3cc(C(=O)OC)ccc3CC[C@H]21`, the inhibition constant Ki in assay [1] is above 10 µM; in assay [2], above 1 µM.
